System: SREBP pathway
Assay: SREBP luciferase reporter gene system (SRE-luciferase assay)
Format: cell-based, human
Conditions: Huh-7/SRE-luc cells, sterol-deficient medium, 0.01-10 µM
Method: Huh-7/SRE-luc cells were incubated in sterol-deficient medium (5% lipoprotein deficient serum, 2 µM lovastatin, 10 µM mevalonic acid) with corresponding concentrations of compounds for 16 hours. The Huh-7/SRE-luc cells were human hepatoma cell line Huh-7 stably expressing LDLR promotor-luciferase and green fluorescent protein (GFP). These cells were obtained by transfecting Huh-7 with pLDLR-promotor-luciferase and pEGFP-N1 plasmids, followed by screening under G418 antibiotic selection pressure. The Huh-7 cells were purchased from ATCC, the pLDLR-promotor-luciferase plasmid was obtained by molecular cloning methods, and the pEGFP-N1 plasmid was purchased from Addgene.
After compound treatment, the cells were lysed with lysis buffer (E397A, Promega). After the addition of luciferase substrate (E1500, Promega), the activity of SRE-driven luciferase was measured using a BioTek Synergy HTX microplate reader (including but not limited to this type of instrument). The fluorescence intensity of green fluorescent protein (EGFP) was also measured using the above BioTek microplate reader (including but not limited to this type of instrument) and served as an internal control. The ratio of SRE-driven luciferase activity divided by the fluorescence intensity of green fluorescent protein was used as an indicator of SREBP pathway activity. The test data for each test compound were analyzed using Prism software (with the DMSO-treated group as the reference to calculate the compound inhibition rate, fitted using the Prism log(inhibitor) vs. response--Variable slope (four-parameter) model, calculation formula: Y = Bottom + (Top - Bottom)/(1 + 10^((LogIC50 - X) × HillSlope))), to obtain the IC50 parameters of the compounds.
Using the method described in 1.1, the inhibitory effect of the compounds of the present disclosure on the SREBP pathway was tested. The concentration gradient for each compound was designed as 0.01, 0.03, 0.1, 0.3, 1.0, 3.0, and 10 µM, with the vehicle DMSO as the control.

Row | SMILES | IC50 (Homo sapiens, Huh-7, 16 h) | IC50 (16 hours)
1 | C[C@H](CCCC(O)c1c(F)cccc1F)[C@H]1CC[C@H]2[C@H]3[C@H](CC[C@]12C)[C@@]1(C)CC[C@H](O)[C@H](O)[C@@H]1CC3(F)F (stereo partly drawn) [Compound 161, (1R,3aS,3bS,5aR,6R,7 S,9aR,9bS,11aR)-1-[(2R)-6-(2,6-Difluorophenyl)-6-hydroxyhexan-2-yl]-4,4-difluoro-9a,11a-dimethylhexadecahyd ro-1H-cyclopenta[1,2-a]phenanthrene-6,7-diol] | 0.1 µM | –
2 | C[C@H](CCCC(O)c1cccc(OC(F)(F)F)c1)[C@H]1CC[C@H]2[C@H]3[C@H](CC[C@]12C)[C@@]1(C)CC[C@H](O)[C@H](O)[C@@H]1CC3(F)F (single isomer, unassigned) [Compound 190, (1R,3aS,3bS,5aR,6R,7S,9aR,9bS,11aR)-4,4-difluoro-1-[(2R,6S)-6-hydroxy-6-{^3-[(trifluoromethyl)oxy]phenyl}hexan-2-yl]-9a,11a-dimethylhexadecahydro-1H-cyclopenta[1,2-a]phenanthrene-6,7-diol or (1R,3aS,3bS,5aR,6R,7S,9aR,9bS,11aR)-4,4-difluoro-1-[(2R,6R)-6-hydroxy-6-{3-[(trifluoromethyl)oxy]phenyl}hexan-2-yl]-9a,11a-dimethylhexadecahydro-1H-cyclopenta[1,2-a]phenanthrene-6,7-diol] | 0.355 µM | –
3 | C[C@H](CCCC(O)c1ccccc1F)[C@H]1CC[C@H]2[C@H]3[C@H](CC[C@]12C)[C@@]1(C)CC[C@H](O)CC1CC3(F)F (stereo partly drawn) [Compound 74, (1R,3aS,3bR,7S,9aS,9bS,11aR)-4,4-difluoro-1-[(2R)-6-(2-fluorophenyl)-6-hydroxyhexan-2-yl]-9a,11a-dimethylhexadecahydro-1H-cyclopenta[1,2-a]phenanthren-7-ol] | 0.68 µM | –
4 | C[C@H](CCCC(O)c1ccc(F)nc1F)[C@H]1CC[C@H]2C3=C(F)C[C@H]4[C@@H](O)[C@@H](O)CC[C@]4(C)[C@H]3CC[C@]12C (stereo partly drawn) [Compound 147, (1R,3aR,5aR,6R,7S,9aR,9bR,11aR)-1-[(2R)-6-(2,6-difluoropyridin-3-yl)-6-hydroxyhexan-2-yl]-4-fluoro-9a,11a-dimethyl-2,3,3a,5,5a,6,7,8,9,9a,9b,10,11,11a-tetradecahydro-1H-cyclopenta[1,2-a]phenanthrene-6,7-diol] | 0.19 µM | –
5 | C[C@H](CCC[C@H](O)c1n[nH]c2ccccc12)[C@H]1CC[C@H]2[C@H]3[C@H](CC[C@]12C)[C@@]1(C)CC[C@H](O)[C@H](O)[C@@H]1CC3(F)F [Compound 319, (1R,3aS,3bS,5aR,6R,7S,9aR,9bS,11aR)-4,4-difluoro-1-[(2R,6S)-6-hydroxy-6-(1H-indazol-3-yl)hexan-2-yl]-9a,11a-dimethylhexadecahydro-1H-cyclopenta[1,2-a]phenanthrene-6,7-diol] | 0.104 µM | –
6 | C[C@H](CCCC(O)c1cccc2nn[nH]c12)[C@H]1CC[C@H]2[C@H]3[C@H](CC[C@]12C)[C@@]1(C)CC[C@H](O)[C@H](O)[C@@H]1CC3(F)F (single isomer, unassigned) [Compound 294, (1R,3aS,3bS,5aR,6R,7S,9aR,9bS,11aR)-4,4-difluoro-1-[(2R,6S)-6-hydroxy-6-(3H-benzo[d][1,2,3]triazol-4-yl)hexan-2-yl]-9a,11a-dimethylhexadecahydro-1H-cyclopenta[1,2-a]phenanthrene-6,7-diol or (1R,3aS,3bS,5aR,6R,7S,9aR,9bS,11aR)-4,4-difluoro-1-[(2R,6R)-6-hydroxy-6-(3H-benzo[d][1,2,3]triazol-4-yl)hexan-2-yl]-9a,11a-dimethylhexadecahydro-1H-cyclopenta[1,2-a]phenanthrene-6,7-diol] | 0.424 µM | –
7 | C[C@H](CCC[C@@H](O)c1nn(C)c2ccccc12)[C@H]1CC[C@H]2[C@H]3[C@H](CC[C@]12C)[C@@]1(C)CC[C@H](O)[C@H](O)[C@@H]1CC3(F)F [Compound 324, (1R,3aS,3bS,5aR,6R,7S,9aR,9bS,11aR)-4,4-difluoro-1-[(2R,6R)-6-hydroxy-6-(1-methylindazol-3-yl)hexan-2-yl]-9a,11a-dimethylhexadecahydro-1H-cyclopenta[1,2-a]phenanthrene-6,7-diol] | 1.51 µM | –
8 | COc1cccc(F)c1[C@@H](F)CCC[C@@H](C)[C@H]1CC[C@H]2[C@H]3[C@H](CC[C@]12C)[C@@]1(C)CC[C@H](O)[C@H](O)[C@@H]1CC3(F)F (single isomer, unassigned) [Compound 215] | 3.57 µM | –
9 | C[C@H](CCCC(O)c1ccc(F)nc1O)[C@H]1CC[C@H]2[C@H]3[C@H](CC[C@]12C)[C@@]1(C)CC[C@H](O)[C@H](O)[C@@H]1CC3(F)F (stereo partly drawn) [Compound 276, (1R,3aS,3bS,5aR,6R,7S,9aR,9bS,11aR)-4,4-difluoro-1-[(2R)-6-(6-fluoro-2-hydroxypyridin-3-yl)-6-hydroxyhexan-2-yl]-9a,11a-dimethylhexadecahydro-1H-cyclopenta[1,2-a]phenanthrene-6,7-diol] | 0.925 µM | –
10 | C[C@H](CCCC(O)c1cccc2nnn(C)c12)[C@H]1CC[C@H]2[C@H]3[C@H](CC[C@]12C)[C@@]1(C)CC[C@H](O)[C@H](O)[C@@H]1CC3(F)F (stereo partly drawn) [Compound 271, (1R,3aS,3bS,5aR,6R,7 S,9aR,9bS,11aR)-4,4-Difluoro-1-[(2R)-6-hydroxy-6-(3-methylbenzo[d][1,2,3]triazol-4-yl)hexan-2-yl]-9a,11a-dimethylhexadecahyd ro-1H-cyclopenta[1,2-a]phenanthrene-6,7-diol] | 0.207 µM | –
11 | COc1cncc(F)c1C(O)CCC[C@@H](C)[C@H]1CC[C@H]2[C@H]3[C@H](CC[C@]12C)[C@@]1(C)CC[C@H](O)[C@H](O)[C@@H]1CC3(F)F (single isomer, unassigned) [Compound 251, (1R,3aS,3bS,5aR,6R,7S,9aR,9bS,11aR)-4,4-difluoro-1-[(2R,6S)-6-(3-fluoro-5-methoxypyridin-4-yl)-6-hydroxyhexan-2-yl]-9a,11a-dimethylhexadecahydro-1H-cyclopenta[1,2-a]phenanthrene-6,7-diol or (1R,3aS,3bS,5aR,6R,7S,9aR,9bS,11aR)-4,4-difluoro-1-[(2R,6R)-6-(3-fluoro-5-methoxypyridin-4-yl)-6-hydroxyhexan-2-yl]-9a,11a-dimethylhexadecahydro-1H-cyclopenta[1,2-a]phenanthrene-6,7-diol] | 0.042 µM | –
12 | COc1cc(F)ccc1/C(CCC[C@@H](C)[C@H]1CC[C@H]2[C@H]3[C@H](CC[C@]12C)[C@@]1(C)CC[C@H](O)[C@H](O)[C@@H]1CC3(F)F)=N/O [Compound 157, [(1E,5R)-5-[(1R,3aS,3bS,5aR,6R,7S,9aR,9bS,11aR)-4,4-difluoro-6,7-dihydroxy-9a,11a-dimethylhexadecahydro-1H-cyclopenta[1,2-a]phenanthren-1-yl]-1-(4-fluoro-2-methoxyphenyl)hexylidene]hydroxylamine] | 0.053 µM | –
13 | COc1cccc(OC)c1C(O)CCC[C@@H](C)[C@H]1CC[C@H]2C3=C(F)C[C@H]4[C@@H](O)[C@@H](O)CC[C@]4(C)[C@H]3CC[C@]12C (stereo partly drawn) [Compound 115, (1R,3aR,5aR,6R,7S,9aR,9bR,11aR)-1-[(2R)-6-(2,6-dimethoxyphenyl)-6-hydroxyhexan-2-yl]-4-fluoro-9a,11a-dimethyl-2,3,3a,5,5a,6,7,8,9,9a,9b,10,11,11a-tetradecahydro-1H-cyclopenta[1,2-a]phenanthrene-6,7-diol] | 0.613 µM | –
14 | COc1nc(C(O)CCC[C@@H](C)[C@H]2CC[C@H]3[C@H]4[C@H](CC[C@]23C)[C@@]2(C)CC[C@H](O)[C@H](O)[C@@H]2CC4(F)F)cs1 (single isomer, unassigned) [Compound 221, (1R,3aS,3bS,5aR,6R,7S,9aR,9bS,11aR)-4,4-difluoro-1-[(2R,6S)-6-hydroxy-6-(2-methoxy-1,3-thiazol-4-yl)hexan-2-yl]-9a,11a-dimethylhexadecahydro-1H-cyclopenta[1,2-a]phenanthrene-6,7-diol or (1R,3aS,3bS,5aR,6R,7S,9aR,9bS,11aR)-4,4-difluoro-1-[(2R,6R)-6-hydroxy-6-(2-methoxy-1,3-thiazol-4-yl)hexan-2-yl]-9a,11a-dimethylhexadecahydro-1H-cyclopenta[1,2-a]phenanthrene-6,7-diol] | – | 0.183 µM
15 | COc1ccc(F)c(C(O)CCC[C@@H](C)[C@H]2CC[C@H]3[C@H]4[C@H](CC[C@]23C)[C@@]2(C)CC[C@H](O)[C@H](O)[C@@H]2CC4(F)F)c1 (single isomer, unassigned) [Compound 166, (1R,3aS,3bS,5aR,5aR,6R,7S,9aR,9bS,11aR) -4,4-difluoro-1-[(2R,6S)-6-(2-fluoro-5-methoxyphenyl)-6-hydroxyhexan-2-yl]-9a,11a-dimethylhexadecahydro-1H-cyclopenta[1,2-a]phenanthrene-6,7-diol or (1R,3aS,3bS,5aR,6R,7S,9aR,9bS,11aR)-4,4-difluoro-1-[(2R,6R)-6-(2-fluoro-5-methoxyphenyl)-6-hydroxyhexan-2-yl]-9a,11a-dimethylhexadecahydro-1H-cyclopenta[1,2-a]phenanthrene-6,7-diol] | – | 0.138 µM
